From the supplement of paper PMC11208160

assay: recombinant barcode read abundance after kanamycin selection (control-corrected) (log10(CPM+1)); higher = more efficient recombination; sequences stand for … in AGTGCAGAGAAAATCGGCCAGTTTTCTCTGCCTGCAGTCCGCATGCCGT…AGATTTATGCAGCGGACTGCCTTTCTCCCAAAGTGATAAACCGGACAGTATCATGGACCGGTTTTCCCGGTAATCCGTATTTGCAAGGTTGGTTTCACT; site = the 11-nt target
Method: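 Pooled E. coli target-specificity screen for the IS621 bridge recombinase. Each library plasmid pairs an 11-nt target (CT core) with a bridge RNA whose target-binding loop (9-nt LTG + 4-nt RTG) is reprogrammed; the rest of the 177-nt WT IS621 bridge RNA scaffold is fixed. The plasmid is co-electroporated with a WT donor plasmid; recombinase is induced with 0.1 mM IPTG and recombinants are selected on kanamycin. Recombinant barcodes are sequenced, converted to CPM, averaged over two biological replicates and corrected by the unselected control CPM. Molecule = full bridge RNA written as DNA: LTG = specificity nt 1-9, RTG = reverse complement of specificity nt 8-11, in the WT scaffold.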
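Also: IS621 recombinase and bridge RNA in Escherichia coli cells.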

Point of comparison: “AACTTGACTTGGGTTCTAACCTGTTGCCT (site AACTTGACTAG)”, “recombinant barcode read abundance (log10)” value 0.731. Against it:
- AACTTAACTTGGGTTCTAACCTGTTGCCT (site AACTGAACTAG) — lower, 0.09
- AACTTAACTTGGGTTCTAACCTGTTGCCT (site AACTTAACTAG) — lower, 0.531
- AACTTCGCTTGGGTTCTAACCTGTTGCCT (site AACTTCACTAG) — lower, 0.114
- AACTTCGCTTGGGTTCTAACCTGTTGCCT (site AACTTCCCTAG) — lower, 0.00931
- AACTTCGCTTGGGTTCTAACCTGTTGCCT (site AACTTCGCTAG) — lower, 0.423
- AACTTCGCTTGGGTTCTAACCTGTTGCCT (site AACTTCTCTAG) — lower, 0.269
- AACTTGACTTGGGTTCTAACCTGTTGCCT (site AAATTGACTAG) — lower, 0.248
- AACTTGACTTGGGTTCTAACCTGTTGCCT (site AAGTTGACTAG) — lower, 0.0706
- AACTTGACTTGGGTTCTAACCTGTTGCCT (site AATTTGACTAG) — lower, 0.232
- AAGAACTCTTGGGTTCTAACCTGTTGCCG (site AAGAACTCTCG) — higher, 2.1
- AAGAACTCTTGGGTTCTAACCTGTTGCCG (site GTTTCAACTAC) — lower, 0.0172
- AAGATACCTTGGGTTCTAACCTGTTGCTG (site AAGATACCTAA) — lower, 0.283
- AAGATACCTTGGGTTCTAACCTGTTGCTG (site AAGATACCTCA) — higher, 1.76
- AAGATATCTTGGGTTCTAACCTGTTGCCT (site AAGATATCTAG) — higher, 1.86
- AAGATATCTTGGGTTCTAACCTGTTGCCT (site ACGATATCTAG) — lower, 0.119
- AAGATATCTTGGGTTCTAACCTGTTGCCT (site AGGATATCTAG) — lower, 0
- AAGATATCTTGGGTTCTAACCTGTTGCCT (site ATGATATCTAG) — lower, 0.0647
- AAGCACCCTTGGGTTCTAACCTGTTGCAG (site AAGCACCCTCT) — higher, 2.59
- AAGCACCCTTGGGTTCTAACCTGTTGCAG (site TAGCACTCTCT) — lower, 0.311
- AAGCACCCTTGGGTTCTAACCTGTTGCTG (site AAGCACCCTCA) — higher, 2.02
- AAGCACCCTTGGGTTCTAACCTGTTGCTG (site CCTGCGACTGT) — lower, 0.276
- AAGCCTACTTGGGTTCTAACCTGTTGCTA (site AAGCCTACTTA) — higher, 1.27
- AAGCCTACTTGGGTTCTAACCTGTTGCTA (site GAGCCTACTTA) — lower, 0.0396
- AAGGCCTCTTGGGTTCTAACCTGTTGCAT (site AAGGCCTCTAT) — higher, 2.93
- AAGGCCTCTTGGGTTCTAACCTGTTGCAT (site AAGGCCTCTTG) — lower, 0.247
- AAGGCTACTTGGGTTCTAACCTGTTGCCT (site AAGGCTACTAG) — lower, 0.304
- AAGGCTACTTGGGTTCTAACCTGTTGCCT (site AAGGCTTCTAG) — lower, 0.144
- AAGGTACCTTGGGTTCTAACCTGTTGCGG (site AAGGTACCTCC) — higher, 2.69
- AAGGTACCTTGGGTTCTAACCTGTTGCGG (site GTCACTACTAT) — lower, 0.0994
- AAGGTCACTTGGGTTCTAACCTGTTGCCT (site AAGGTCACTAG) — higher, 2.24
- AAGGTCACTTGGGTTCTAACCTGTTGCCT (site ACGGTCACTAG) — within 0.2 log units, 0.816
- AAGGTCACTTGGGTTCTAACCTGTTGCCT (site AGGGTCACTAG) — lower, 0.0802
- AAGGTCACTTGGGTTCTAACCTGTTGCCT (site ATGGTCACTAG) — lower, 0.361
- AAGGTCACTTGGGTTCTAACCTGTTGCTG (site AAGGTCACTCA) — higher, 2.52
- AAGGTCACTTGGGTTCTAACCTGTTGCTG (site GTACATCCTAC) — lower, 0.0968
- AAGTCCACTTGGGTTCTAACCTGTTGCCT (site AAGTCCACTAG) — higher, 0.934
- AAGTCCACTTGGGTTCTAACCTGTTGCCT (site ATTTCCACTAG) — lower, 0.027
- AAGTCTCCTTGGGTTCTAACCTGTTGCAG (site AAGTCTCCTCT) — lower, 0.174
- AAGTCTCCTTGGGTTCTAACCTGTTGCAG (site GCAATATCTAG) — lower, 0.116
- AAGTCTCCTTGGGTTCTAACCTGTTGCCT (site AAGACTCCTAG) — lower, 0.134
- AAGTCTCCTTGGGTTCTAACCTGTTGCCT (site AAGTCTCCTAG) — within 0.2 log units, 0.64
- AAGTGAGCTTGGGTTCTAACCTGTTGCAG (site AAGTGAGCTCT) — higher, 2.69
- AAGTGAGCTTGGGTTCTAACCTGTTGCAG (site AATAGAGCTCT) — lower, 0.12
- AAGTGGACTTGGGTTCTAACCTGTTGCCT (site AAGTCGACTAG) — lower, 0.121
- AAGTGGACTTGGGTTCTAACCTGTTGCCT (site AAGTGGACTAG) — higher, 1.93
- AAGTTAGCTTGGGTTCTAACCTGTTGCGG (site AAGTTAGCTCC) — higher, 2.28
- AAGTTAGCTTGGGTTCTAACCTGTTGCGG (site GGCAACTCTAG) — lower, 0.108
- AAGTTGACTTGGGTTCTAACCTGTTGCCT (site AAATTGACTAG) — lower, 0.378
- AAGTTGACTTGGGTTCTAACCTGTTGCCT (site AACTTGACTAG) — lower, 0.248
- AAGTTGACTTGGGTTCTAACCTGTTGCCT (site AAGTTGACTAG) — higher, 1.57
- AAGTTGACTTGGGTTCTAACCTGTTGCCT (site AATTTGACTAG) — lower, 0.304
- AATAACCCTTGGGTTCTAACCTGTTGCCT (site AATAACCCTAG) — higher, 1.2
- AATAACCCTTGGGTTCTAACCTGTTGCCT (site ACTAACCCTAG) — lower, 0.145
- AATAACCCTTGGGTTCTAACCTGTTGCCT (site AGTAACCCTAG) — lower, 0.146
- AATAACCCTTGGGTTCTAACCTGTTGCCT (site ATTAACCCTAG) — lower, 0.0794
- AATAGCTCTTGGGTTCTAACCTGTTGCCT (site AATAGCTCTAG) — within 0.2 log units, 0.82
- AATAGCTCTTGGGTTCTAACCTGTTGCCT (site CATAGCTCTAG) — lower, 0.0982
- AATAGCTCTTGGGTTCTAACCTGTTGCCT (site GATAGCTCTAG) — lower, 0.166
- AATAGCTCTTGGGTTCTAACCTGTTGCCT (site TATAGCTCTAG) — lower, 0.116
- AATATCTCTTGGGTTCTAACCTGTTGCCA (site AATATCTCTTG) — lower, 0.278
- AATATCTCTTGGGTTCTAACCTGTTGCCA (site CTACCTACTCC) — lower, 0.144
- AATATGCCTTGGGTTCTAACCTGTTGCCT (site AATATGCCTAG) — within 0.2 log units, 0.582
- AATATGCCTTGGGTTCTAACCTGTTGCCT (site AATCTCCCTAG) — lower, 0.0372
- AATGCTTCTTGGGTTCTAACCTGTTGCCT (site AATGCTTCTAG) — higher, 1.05
- AATGCTTCTTGGGTTCTAACCTGTTGCCT (site AATTGTTCTAG) — lower, 0.167
- AATGGGACTTGGGTTCTAACCTGTTGCCT (site AATGGGACTAG) — higher, 1.72
- AATGGGACTTGGGTTCTAACCTGTTGCCT (site AATGGGCCTAG) — lower, 0.171
- AATGGGACTTGGGTTCTAACCTGTTGCCT (site AATGGGGCTAG) — lower, 0.222
- AATGGGACTTGGGTTCTAACCTGTTGCCT (site AATGGGTCTAG) — lower, 0.0882
- AATGGGGCTTGGGTTCTAACCTGTTGCCT (site AATGGGACTAG) — lower, 0.369
- AATGGGGCTTGGGTTCTAACCTGTTGCCT (site AATGGGCCTAG) — lower, 0.189
- AATGGGGCTTGGGTTCTAACCTGTTGCCT (site AATGGGGCTAG) — within 0.2 log units, 0.79
- AATGGGGCTTGGGTTCTAACCTGTTGCCT (site AATGGGTCTAG) — lower, 0.274
- AATGTATCTTGGGTTCTAACCTGTTGCCT (site AATGAATCTAG) — lower, 0
- AATGTATCTTGGGTTCTAACCTGTTGCCT (site AATGCATCTAG) — lower, 0.0382
- AATGTATCTTGGGTTCTAACCTGTTGCCT (site AATGGATCTAG) — lower, 0.0435
- AATGTATCTTGGGTTCTAACCTGTTGCCT (site AATGTATCTAG) — higher, 1.17
- AATTCGACTTGGGTTCTAACCTGTTGCCT (site AATTCGACTAG) — lower, 0.399
- AATTCGACTTGGGTTCTAACCTGTTGCCT (site ACTTCGACTAG) — lower, 0.0747
- AATTCGACTTGGGTTCTAACCTGTTGCCT (site AGTTCGACTAG) — lower, 0.222
- AATTCGACTTGGGTTCTAACCTGTTGCCT (site ATTTCGACTAG) — lower, 0
